Test results from US20110166121A1 (LG LIFE SCIENCES LTD., priority 2008, published 2011).
Where a name gives a salt, the structure may show the parent alone.

The compounds below were run on Human platelet aggregation caused by ADP (assay: Inhibition of ADP-induced platelet aggregation (Mimic-human PRP)). Settings: 20 μM ADP, human platelet concentrate diluted with PPP, absorption at 595 nm.
Assay type: cell-based
Procedure, shortened: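 Ki came from non-linear sigmoidal fits of inhibition, measured as the 3-min rise in absorbance at 595 nm after 20 μM ADP, relative to 0/20 μM ADP controls. Platelets (3–4×10^8/mL in PPP-diluted human PRP) were exposed to 0.01–30 μM compound for 20 min at room temperature beforehand.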

Q: Which Ki does the source give for `CCCC(=O)NC1CCN(c2nc(N3CCn4c(nnc4C(F)(F)F)C3)c3cc(CCC)sc3n2)CC1` [Example 7-13, Hydrochloric acid salt of N-{1-[6-Propyl-4-(3-trifluoromethyl-5,6-dihydro-8H-[1,2,4]triazolo[4,3-a]pyrazin-7-yl)-thieno[2,3-d]pyrimidin-2-yl]-piperidin-4-yl}-butyramide] here?
A: 76 nM

Q: With `CCCc1cc2c(N3CCn4c(nnc4C(F)(F)F)C3)nc(N3CC[C@H](NC(=O)Cc4csc(N)n4)C3)nc2s1` [Example 1-119, 2-(2-Amino-thiazol-4-yl)-N-{(S)-1-[6-propyl-4-(3-trifluoromethyl-5,6-dihydro-8H-[1,2,4]triazolo[4,3-a]pyrazin-7-yl)-thieno[2,3-d]pyrimidin-2-yl]-pyrrolidin-3-yl}-acetamide] as the compound, how does the Ki read?
A: 7.2 nM

Q: With `CCCC(=O)N1CC[C@@H](CNc2nc(N3CCn4c(nnc4C(F)(F)F)C3)c3cc(CCC)sc3n2)C1` [Example 8-20, 1-((S)-3-{[6-Propyl-4-(3-trifluoromethyl-5,6-dihydro-8H-[1,2,4]triazolo[4,3-a]pyrazin-7-yl)-thieno[2,3-d]pyrimidin-2-ylamino]-methyl}-pyrrolidin-1-yl)-butan-1-one] as the compound, how does the Ki read?
A: 410 nM

Q: Which Ki does the source give for `CCCc1cc2c(N3CCn4c(nnc4C(F)(F)F)C3)nc(OCCNC(=O)NC)nc2s1` [Example 9-25, 1-Methyl-3-{2-[6-propyl-4-(3-trifluoromethyl-5,6-dihydro-8H-[1,2,4]triazolo[4,3-a]pyrazin-7-yl)-thieno[2,3-d]pyrimidin-2-yloxy]-ethyl}-urea] here?
A: 5.7 nM

Q: How did the Ki turn out when `CCCc1cc2c(N3CCn4c(nnc4C(F)(F)F)C3)nc(OCCCCNC(C)=O)nc2s1` [Example 9-89, N-{4-[6-Propyl-4-(3-trifluoromethyl-5,6-dihydro-8H-[1,2,4]triazolo[4,3-a]pyrazin-7-yl)-thieno[2,3-d]pyrimidin-2-yloxy]-butyl}-acetamide] was run?
A: 290 nM

Q: With `CCCc1cc2c(N3CCn4c(nnc4C(F)(F)F)C3)nc(OCCNC(=O)C(C)(C)O)nc2s1` [Example 7-33, 2-Hydroxy-2-methyl-N-{2-[6-propyl-4-(3-trifluoromethyl-5,6-dihydro-8H-[1,2,4]triazolo[4,3-a]pyrazin-7-yl)-thieno[2,3-d]pyrimidin-2-yloxy]-ethyl}-propionamide] as the compound, how does the Ki read?
A: 6.7 nM

Q: `CCCc1cc2c(N3CCn4c(nnc4C(F)(F)F)C3)nc(N3CCC[C@@H](NC(C)=O)C3)nc2s1` [Example 7-6, Hydrochloric acid salt of N-{(R)-1-[6-Propyl-4-(3-trifluoromethyl-5,6-dihydro-8H-[1,2,4]triazolo[4,3-a]pyrazin-7-yl)-thieno[2,3-d]pyrimidin-2-yl]-piperidin-3-yl}-acetamide] was tested. Which Ki did it give?
A: 18 nM

Q: `CCCc1cc2c(N3CCn4c(nnc4C(F)(F)F)C3)nc(N3CC[C@@H](CNC(=O)C(C)C)C3)nc2s1` [Example 8-3, N-{(S)-1-[6-Propyl-4-(3-trifluoromethyl-5,6-dihydro-8H-[1,2,4]triazolo[4,3-a]pyrazin-7-yl)-thieno[2,3-d]pyrimidin-2-yl]-pyrrolidin-3-ylmethyl}-isobutyramide] was tested. Which Ki did it give?
A: 330 nM

Q: Which Ki does the source give for `CCCc1cc2c(N3CCn4c(nnc4C(F)(F)F)C3)nc(N3CC[C@H](NC(C)=O)C3)nc2s1` [Example 1-105, N-{(S)-1-[6-Propyl-4-(3-trifluoromethyl-5,6-dihydro-8H-[1,2,4]triazolo[4,3-a]pyrazin-7-yl)-thieno[2,3-d]pyrimidin-2-yl]-pyrrolidin-3-yl}-acetamide] here?
A: 4.4 nM

Q: With `CCCC(=O)N[C@H]1CCCN(c2nc(N3CCn4c(nnc4C(F)(F)F)C3)c3cc(CCC)sc3n2)C1` [Example 7-10, Hydrochloric acid salt of N-{(S)-1-[6-Propyl-4-(3-trifluoromethyl-5,6-dihydro-8H-[1,2,4]triazolo[4,3-a]pyrazin-7-yl)-thieno[2,3-d]pyrimidin-2-yl]-piperidin-3-yl}-butyramide] as the compound, how does the Ki read?
A: 980 nM

Q: How did the Ki turn out when `CCCc1cc2c(N3CCn4c(nnc4C(F)(F)F)C3)nc(OCCNC(=O)C(C)(C)CO)nc2s1` [Example 7-35, 3-Hydroxy-2,2-dimethyl-N-{2-[6-propyl-4-(3-trifluoromethyl-5,6-dihydro-8H-[1,2,4]triazolo[4,3-a]pyrazin-7-yl)-thieno[2,3-d]pyrimidin-2-yloxy]-ethyl}-propionamide] was run?
A: 10 nM

Q: `CCCc1cc2c(N3CCn4c(nnc4C(F)(F)F)C3)nc(OCCCCNC(=O)OC)nc2s1` [Example 9-88, {4-[6-Propyl-4-(3-trifluoromethyl-5,6-dihydro-8H-[1,2,4]triazolo[4,3-a]pyrazin-7-yl)-thieno[2,3-d]pyrimidin-2-yloxy]-butyl}-carbamic acid methyl ester] was tested. Which Ki did it give?
A: 420 nM

Q: Which Ki does the source give for `CCCc1cc2c(N3CCn4c(nnc4C(F)(F)F)C3)nc(NC3CN(C(C)=O)C3)nc2s1` [Example 8-10, 1-{3-[6-Propyl-4-(3-trifluoromethyl-5,6-dihydro-8H-[1,2,4]triazolo[4,3-a]pyrazin-7-yl)-thieno[2,3-d]pyrimidin-2-ylamino]-azetidin-1-yl}-ethanone] here?
A: 110 nM

Q: With `CCCc1cc2c(N3CCn4c(nnc4C(F)(F)F)C3)nc(N[C@@H]3CCN(C(=O)C(C)C)C3)nc2s1` [Example 8-18, 2-Methyl-1-{(R)-3-[6-propyl-4-(3-trifluoromethyl-5,6-dihydro-8H-[1,2,4]triazolo[4,3-a]pyrazin-7-yl)-thieno[2,3-d]pyrimidin-2-ylamino]-pyrrolidin-1-yl}-propan-1-one] as the compound, how does the Ki read?
A: 41 nM

Q: Which Ki does the source give for `CCCc1cc2c(N3CCn4c(nnc4C(F)(F)F)C3)nc(N3CC[C@H](C(=O)N(C)C)C3)nc2s1` [Example 1-88, (S)-1-[6-Propyl-4-(3-trifluoromethyl-5,6-dihydro-8H-[1,2,4]triazolo[4,3-a]pyrazin-7-yl)-thieno[2,3-d]pyrimidin-2-yl]-pyrrolidine-3-carboxylic acid dimethylamide] here?
A: 16 nM

Q: `CCCc1cc2c(N3CCn4c(nnc4C(F)(F)F)C3)nc(N3CC4OC(=O)N[C@H]4C3)nc2s1` (stereo partly drawn) [Example 7-26, (S)-5-[6-Propyl-4-(3-trifluoromethyl-5,6-dihydro-8H-[1,2,4]triazolo[4,3-a]pyrazin-7-yl)-thieno[2,3-d]pyrimidin-2-yl]-hexahydro-pyrrolo[3,4-d]oxazol-2-one] was tested. Which Ki did it give?
A: 2.1 nM

Q: How did the Ki turn out when `CCCc1cc2c(N3CCn4c(nnc4C(F)(F)F)C3)nc(N(C)CCNC=O)nc2s1` [Example 9-41, N-(2-{Methyl-[6-propyl-4-(3-trifluoromethyl-5,6-dihydro-8H-[1,2,4]triazolo[4,3-a]pyrazin-7-yl)-thieno[2,3-d]pyrimidin-2-yl]-amino}-ethyl)-formamide] was run?
A: 37 nM

Q: For `CCCc1cc2c(N3CCn4c(nnc4C(F)(F)F)C3)nc(OCCN(CCOC(C)=O)C(C)=O)nc2s1` [Example 9-100, Acetic Acid 2-(acetyl-{2-[6-propyl-4-(3-trifluoromethyl-5,6-dihydro-8H-[1,2,4]triazolo[4,3-a]pyrazin-7-yl)-thieno[2,3-d]pyrimidin-2-yloxy]-ethyl}-amino)-ethyl ester], which Ki is on record?
A: 38 nM

Q: With `CCCc1cc2c(N3CCn4c(nnc4C(F)(F)F)C3)nc(OC[C@H]3CCN(C(=O)C(C)C)C3)nc2s1` [Example 8-39, 2-Methyl-1-{(S)-3-[6-propyl-4-(3-trifluoromethyl-5,6-dihydro-8H-[1,2,4]triazolo[4,3-a]pyrazin-7-yl)-thieno[2,3-d]pyrimidin-2-yloxymethyl]-pyrrolidin-1-yl}-propan-1-one] as the compound, how does the Ki read?
A: 76 nM

Q: How did the Ki turn out when `CCCc1cc2c(N3CCn4c(nnc4C(F)(F)F)C3)nc(OCCNC=O)nc2s1` [Example 9-23, N-{2-[6-Propyl-4-(3-trifluoromethyl-5,6-dihydro-8H-[1,2,4]triazolo[4,3-a]pyrazin-7-yl)-thieno[2,3-d]pyrimidin-2-yloxy]-ethyl}-formamide] was run?
A: 3 nM

Q: `CCCc1cc2c(N3CCn4c(nnc4C(F)(F)F)C3)nc(N3CCC(NC(=O)C(C)C)CC3)nc2s1` [Example 7-14, Hydrochloric acid salt of N-{1-[6-Propyl-4-(3-trifluoromethyl-5,6-dihydro-8H-[1,2,4]triazolo[4,3-a]pyrazin-7-yl)-thieno[2,3-d]pyrimidin-2-yl]-piperidin-4-yl}-isobutyramide] was tested. Which Ki did it give?
A: 120 nM

Q: `CCCc1cc2c(N3CCn4c(nnc4C(F)(F)F)C3)nc(OCCC(=O)NN)nc2s1` [Example 9-73, 3-[6-Propyl-4-(3-trifluoromethyl-5,6-dihydro-8H-[1,2,4]triazolo[4,3-a]pyrazin-7-yl)-thieno[2,3-d]pyrimidin-2-yloxy]-propionic acid hydrazide] was tested. Which Ki did it give?
A: 16 nM

Q: `CCCC(=O)N[C@H]1CCN(c2nc(N3CCn4c(nnc4C(F)(F)F)C3)c3cc(CCC)sc3n2)C1` [Example 7-1, Hydrochloric acid salt of N-{(S)-1-[6-Propyl-4-(3-trifluoromethyl-5,6-dihydro-8H-[1,2,4]triazolo[4,3-a]pyrazin-7-yl)-thieno[2,3-d]pyrimidin-2-yl]-pyrrolidin-3-yl}-butyramide] was tested. Which Ki did it give?
A: 11 nM

Q: `CCCc1cc2c(N3CCn4c(nnc4C(F)(F)F)C3)nc(N3CC[C@H](NC(=O)C4CC4)C3)nc2s1` [Example 1-108, Cyclopropanecarboxylic Acid {(S)-1-[6-propyl-4-(3-trifluoromethyl-5,6-dihydro-8H-[1,2,4]triazolo[4,3-a]pyrazin-7-yl)-thieno[2,3-d]pyrimidin-2-yl]-pyrrolidin-3-yl}-amide] was tested. Which Ki did it give?
A: 9.3 nM

Q: With `CCCc1cc2c(N3CCn4c(nnc4C(F)(F)F)C3)nc(OCC(C)NC(C)=O)nc2s1` (centres unmarked) [Example 9-77, N-{1-Methyl-2-[6-propyl-4-(3-trifluoromethyl-5,6-dihydro-8H-[1,2,4]triazolo[4,3-a]pyrazin-7-yl)-thieno[2,3-d]pyrimidin-2-yloxy]-ethyl}-acetamide] as the compound, how does the Ki read?
A: 6 nM

Q: `CCCc1cc2c(N3CCn4c(nnc4C(F)(F)F)C3)nc(OC[C@H]3CCCN3C(C)=O)nc2s1` [Example 8-28, -{(R)-2-[6-Propyl-4-(3-trifluoromethyl-5,6-dihydro-8H-[1,2,4]triazolo[4,3-a]pyrazin-7-yl)-thieno[2,3-d]pyrimidin-2-yloxymethyl]-pyrrolidin-1-yl}-ethanone] was tested. Which Ki did it give?
A: 45 nM
